According to US20090209578A1, “CHEMICAL COMPOUNDS” (PFIZER INC, priority 2005, published 2009):

target: HIV-1 fusion (gp160 induced cell-cell fusion; HeLa P4 cell line expressing CCR5 and CD4 / CHO-Tat10 cell line) (Homo sapiens, UniProt P51681); experiment: gp160 induced cell-cell fusion assay; assay type: cell-based; conditions: HeLa P4 / CHO-Tat10 cells, read-out: IC50
Source text: Biol., 60, 147-52 (1996); and/or by using the intracellular calcium mobilisation assays as described by the same authors, and/or inhibiting cell fusion following procedures disclosed in Bradley et al., J Biomol Screen 9, 516-24 (2004).
The gp160 induced cell-cell fusion assay uses a HeLa P4 cell line and a CHO-Tat10 cell line.
The HeLa P4 cell line expresses CCR5 and CD4 and has been transfected with HIV-1 LTR-β-Galactosidase. The media for this cell line is Dulbecco modified eagle's medium (D-MEM) (without L-glutamine) containing 10% foetal calf serum (FCS), 2 mM L-glutamine, penicillin/streptomycin (Pen/Strep; 100 U/mL penicillin+[…] streptomycin), and 1 μg/ml puromycin.
The CHO cell line is a Tat (transcriptional trans activator)-expressing clone from a CHO JRR17.1 cell line that has been transfected with pTat puro plasmid. The media for this cell line is rich medium for mammalian cell culture originally developed at Roswell Park Memorial Institute RPMI1640 (without L-glutamine) containing 10% FCS, 2 mM L-glutamine, 0.5 mg/ml Hygromycin B and 12 µg/ml puromycin. The CHO JRR17.1 line expresses gp160 (JRFL) and is a clone that has been selected for its ability to fuse with a CCR5/CD4 expressing cell line.
Upon cell fusion, Tat present in the CHO cell is able to transactivate the HIV-1 long terminal repeat (LTR) present in the HeLa cell leading to the expression of the β-Galactosidase enzyme. This expression is then measured using a Fluor Ace™ β-Galactosidase reporter assay kit (Bio-Rad cat no. 170-3150). This kit is a quantitative fluorescent assay that determines the level of expression of β-galactosidase using 4-methylumbelliferyl-galactopyranoside (MUG) as substrate. β-Galactosidase hydrolyses the fluorogenic substrate resulting in release of the fluorescent molecule 4-methylumbelliferone (4MU). Fluorescence of 4-methylumbelliferone is then measured on a fluorometer using an excitation wavelength of 360 nm and emission wavelength of 460 nm.
Compounds that inhibit fusion will give rise to a reduced signal and, following solubilisation in an appropriate solvent and dilution in culture medium, a dose-response curve for each compound can be used to calculate IC50 values.

Sequence of HIV-1 fusion (gp160 induced cell-cell fusion; HeLa P4 cell line expressing CCR5 and CD4 / CHO-Tat10 cell line) (P51681 whole entry, the tested form may be a part): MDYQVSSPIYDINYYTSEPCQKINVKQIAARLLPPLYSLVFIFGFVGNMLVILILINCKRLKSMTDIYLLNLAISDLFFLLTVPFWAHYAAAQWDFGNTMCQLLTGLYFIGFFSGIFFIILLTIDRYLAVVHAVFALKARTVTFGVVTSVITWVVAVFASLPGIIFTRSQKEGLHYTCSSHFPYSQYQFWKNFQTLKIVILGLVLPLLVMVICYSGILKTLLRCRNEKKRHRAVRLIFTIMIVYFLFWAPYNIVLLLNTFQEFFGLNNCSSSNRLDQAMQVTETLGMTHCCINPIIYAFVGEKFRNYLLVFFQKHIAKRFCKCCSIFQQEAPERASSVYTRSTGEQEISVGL

Structure (SMILES)	IC50 [nM]
COC(=O)N1CCc2nc(C)n(C3CCN(C(C)CC(NC(=O)C4CCC(F)(F)CC4)c4ccccc4)CC3)c2C1 (mixture of isomers) [Example 6]	1
COC(=O)N1CCc2nc(C)n(C3CCN(C(C)CC(NC(=O)CC4CC4)c4ccccc4)CC3)c2C1 (mixture of isomers) [Example 7]	0.9
COC(=O)N1CCc2nc(C)n(C3CCN(C(C)CC(NC(=O)C4CCS(=O)(=O)CC4)c4ccccc4)CC3)c2C1 (mixture of isomers) [Example 8]	6
COC(=O)N1CCc2nc(C)n(C3CCN(C(C)CC(NC(=O)C4CCC4)c4ccccc4)CC3)c2C1 (mixture of isomers) [Example 10]	0.3
COC(=O)N1CCc2nc(C)n(C3CCN(C(C)CC(NC(=O)C(C)C)c4ccccc4)CC3)c2C1 (mixture of isomers) [Example 11]	0.6
COC(=O)N1CCc2nc(C)n(C3CCN(C(C)CC(NC(=O)C4CC4)c4ccccc4)CC3)c2C1 (mixture of isomers) [Example 12]	0.6
COC(=O)N1CCc2nc(C)n(C3CCN(C(C)CC(NC(=O)OC(C)C)c4ccccc4)CC3)c2C1 (mixture of isomers) [Example 14]	17.2
COC(=O)N1CCc2c(nc(C)n2C2CCN(C(C)CC(NC(C)=O)c3cccc(F)c3)CC2)C1 (mixture of isomers) [Example 76]	5.5
COC(=O)N1CCc2c(nc(C)n2C2CCN(C(C)CC(NC(=O)C(C)C)c3cccc(F)c3)CC2)C1 (mixture of isomers) [Example 77]	0.6
COC(=O)N1CCc2c(nc(C)n2C2CCN(C(C)CC(NC(=O)C3CC3)c3cccc(F)c3)CC2)C1 (mixture of isomers) [Example 78]	1.8
CC(CC(NC(=O)C1CCC(F)(F)CC1)c1ccccc1)N1CCC(n2ccnc2)CC1 (mixture of isomers) [Example 127]	4.7
Cc1nc(C2CCN(C(C)CC(NC(=O)C3CCC(F)(F)CC3)c3ccccc3)CC2)no1 (mixture of isomers) [Example 128]	26
CCc1noc(C2CCN(C(C)CC(NC(=O)C3CCC(F)(F)CC3)c3ccccc3)CC2)n1 (mixture of isomers) [Example 129]	8.6
CC(C)Cc1nnc(C2CCN(C(C)CC(NC(=O)C3CCC(F)(F)CC3)c3ccccc3)CC2)o1 (mixture of isomers) [Example 130]	5.9
CC(C)c1nc(C2CCN(C(C)CC(NC(=O)C3CCC(F)(F)CC3)c3ccccc3)CC2)no1 (mixture of isomers) [Example 131]	20.2
COC(=O)N1CCc2nc(C)n(C3CCN(C(C)C[C@H](NC(=O)OC(C)(C)C)c4ccccc4)CC3)c2C1 (single isomer, unassigned) [Example 2]	14
COC(=O)N1CCc2nc(C)n(C3CCN(C(C)C[C@H](NC(=O)OC(C)(C)C)c4ccccc4)CC3)c2C1 (single isomer, unassigned) [Example 3]	434
COC(=O)N[C@@H](CC(C)N1CCC(n2c(C)nc3c2CN(C(=O)OC)CC3)CC1)c1ccccc1 (single isomer, unassigned) [Example 13A]	37.1
COC(=O)N[C@@H](CC(C)N1CCC(n2c(C)nc3c2CN(C(=O)OC)CC3)CC1)c1ccccc1 (single isomer, unassigned) [Example 13B]	600
Cc1nc2c(n1C1CCN(C(C)C[C@H](NC(=O)C3CCC3)c3ccccc3)CC1)CN(C(=O)C(C)C)CC2 (single isomer, unassigned) [Example 24]	0.2
Cc1nc2c(n1C1CCN(C(C)C[C@H](NC(=O)CC(C)C)c3ccccc3)CC1)CN(C(=O)C(C)C)CC2 (single isomer, unassigned) [Example 28]	79.2

Structure (SMILES)	IC50 [nM]
Cc1nc2c(n1C1CCN(C(C)C[C@H](NC(=O)C(C)C)c3ccccc3)CC1)CN(C(=O)C(C)C)CC2 (single isomer, unassigned) [Example 29]	29.9
Cc1nc2c(n1C1CCN(C(C)C[C@H](NC(=O)C3CCC3)c3ccccc3)CC1)CN(C(=O)C(C)C)CC2 (single isomer, unassigned) [Example 30]	11
CC(=O)N[C@@H](CC(C)N1CCC(n2c(C)nc3c2CN(C(=O)C(C)C)CC3)CC1)c1ccccc1 (single isomer, unassigned) [Example 31]	191
CCCC(=O)N[C@@H](CC(C)N1CCC(n2c(C)nc3c2CN(C(C)=O)CC3)CC1)c1cccc(F)c1 (single isomer, unassigned) [Example 47]	0.7
CC(=O)N1CCc2nc(C)n(C3CCN(C(C)C[C@H](NC(=O)CC(C)C)c4cccc(F)c4)CC3)c2C1 (single isomer, unassigned) [Example 50]	0.4
CC(=O)N1CCc2nc(C)n(C3CCN(C(C)C[C@H](NC(=O)C4CCC(F)(F)CC4)c4cccc(F)c4)CC3)c2C1 (single isomer, unassigned) [Example 51]	0.3
COC(=O)N1CCc2c(nc(C)n2C2CCN(C(C)C[C@H](NC(C)=O)c3ccccc3)CC2)C1 (single isomer, unassigned) [Example 72]	2.4
COC(=O)N1CCc2c(nc(C)n2C2CCN(C(C)C[C@H](NC(C)=O)c3ccccc3)CC2)C1 (single isomer, unassigned) [Example 73]	9.1
CC(=O)N1CCc2c(nc(C)n2C2CCN(C(C)C[C@H](NC(=O)C(C)C)c3cccc(F)c3)CC2)C1 (single isomer, unassigned) [Example 93]	12.9
CCOC(=O)N1CCc2c(nc(C)n2C2CCN(C(C)C[C@H](NC(=O)C(C)C)c3cccc(F)c3)CC2)C1 (single isomer, unassigned) [Example 95]	5.5
CCOC(=O)N1CCc2c(nc(C)n2C2CCN(C(C)C[C@H](NC(=O)C3CC3)c3cccc(F)c3)CC2)C1 (single isomer, unassigned) [Example 97]	10
CCOC(=O)N1CCc2c(nc(C)n2C2CCN(C(C)C[C@H](NC(=O)CC)c3cccc(F)c3)CC2)C1 (single isomer, unassigned) [Example 98]	19.1
CC(=O)N1CCc2c(nc(C)n2C2CCN(C(C)C[C@H](NC(=O)C3CC3)c3cccc(F)c3)CC2)C1 (single isomer, unassigned) [Example 101]	18.8
CCC(=O)N[C@@H](CC(C)N1CCC(n2c(C)nc3c2CCN(C(C)=O)C3)CC1)c1cccc(F)c1 (single isomer, unassigned) [Example 102]	25.9
Cc1noc(C2CCN(C(C)C[C@H](NC(=O)OC(C)(C)C)c3ccccc3)CC2)n1 (single isomer, unassigned) [Example 106A]	362
Cc1noc(C2CCN(C(C)C[C@H](NC(=O)C3CCC(F)(F)CC3)c3ccccc3)CC2)n1 (single isomer, unassigned) [Example 109]	4.6
Cc1noc(C2CCN(C(C)C[C@H](NC(=O)C3CCC(F)(F)CC3)c3ccccc3)CC2)n1 (single isomer, unassigned) [Example 110]	353
Cc1cc(C(C)C)n(C2CCN(C(C)C[C@H](NC(=O)C3CCC(F)(F)CC3)c3ccccc3)CC2)n1 (single isomer, unassigned) [Example 116]	50.5
Cc1cc(C(C)C)n(C2CCN(C(C)C[C@H](NC(=O)C3CCC(F)(F)CC3)c3ccccc3)CC2)n1 (single isomer, unassigned) [Example 117]	1170
CC(C)c1nnnn1C1CCN(C(C)C[C@H](NC(=O)C2CCC(F)(F)CC2)c2ccccc2)CC1 (single isomer, unassigned) [Example 121]	0.5
